Source: paper PMC9977279, “Cryo-EM structures of mitochondrial respiratory complex I from Drosophila melanogaster” (eLife, 2023)

Tests used:
Experiment in all cases: cryo-EM structure ([…] A)
[1] = system: T1, Drosophila complex I (ubiquinone-binding site; subunits NDUFS2, NDUFS7, ND1, ND3, ND6); parameters: species or system Drosophila melanogaster; settings: co-purified; Dm1 active state; partially inserted in ubiquinone channel; ubiquinone-9 or -10 referred to as Q9
T1 construct: gene ND-49; native 43-subunit complex I (14 core, 29 supernumerary), ~1 MDa monomer, purified from mitochondrial membranes of whole adult flies in DDM; no tag; NDUFA2 and NDUFC1 absent; with NADH dehydrogenase [ubiquinone] flavoprotein 1

[2] = target: T2, Drosophila complex I (NADH-binding site at the FMN cofactor) (Drosophila melanogaster, UniProt Q9VMI3); settings: co-purified; Dm1 active state
T2 construct: gene ND-51; native 43-subunit complex I, ~1 MDa monomer, purified from mitochondrial membranes of whole adult flies in DDM; no tag; with NADH dehydrogenase [ubiquinone] iron-sulfur protein 2; NADH dehydrogenase [ubiquinone] iron-sulfur protein 7; NADH-ubiquinone oxidoreductase chain 1

[3] = target: T3, subunit NDUFA10 of Drosophila complex I (Drosophila melanogaster, UniProt P91929); assay type: binding; settings: modelled in Dm1 map; identity taken from earlier work
T3 construct: gene ND-42; subunit within native 43-subunit complex I purified from mitochondrial membranes of whole adult flies; no tag
T3 sequence (P91929 61-407): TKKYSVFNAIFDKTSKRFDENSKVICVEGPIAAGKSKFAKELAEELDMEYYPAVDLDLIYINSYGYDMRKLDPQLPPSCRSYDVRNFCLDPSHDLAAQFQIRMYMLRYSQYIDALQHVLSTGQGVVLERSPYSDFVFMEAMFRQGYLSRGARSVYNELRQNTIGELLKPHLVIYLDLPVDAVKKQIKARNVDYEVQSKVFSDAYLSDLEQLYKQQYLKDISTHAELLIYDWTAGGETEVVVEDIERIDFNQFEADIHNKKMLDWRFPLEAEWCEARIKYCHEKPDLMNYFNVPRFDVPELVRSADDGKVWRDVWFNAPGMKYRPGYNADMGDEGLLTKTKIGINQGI

T2 sequence (Q9VMI3 34-474, one chain of several): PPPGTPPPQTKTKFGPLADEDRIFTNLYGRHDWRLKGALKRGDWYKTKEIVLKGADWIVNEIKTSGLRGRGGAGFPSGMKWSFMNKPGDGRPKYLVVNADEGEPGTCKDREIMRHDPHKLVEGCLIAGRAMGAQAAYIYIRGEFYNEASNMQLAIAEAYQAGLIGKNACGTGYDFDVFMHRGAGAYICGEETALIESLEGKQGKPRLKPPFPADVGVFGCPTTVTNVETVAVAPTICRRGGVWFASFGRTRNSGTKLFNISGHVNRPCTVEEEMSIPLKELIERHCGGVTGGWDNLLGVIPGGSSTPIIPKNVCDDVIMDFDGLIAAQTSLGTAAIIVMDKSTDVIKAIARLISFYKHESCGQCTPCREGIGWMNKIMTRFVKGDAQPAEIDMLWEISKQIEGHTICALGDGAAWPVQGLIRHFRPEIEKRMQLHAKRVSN
T1 sequence (Q9V4E0 39-468): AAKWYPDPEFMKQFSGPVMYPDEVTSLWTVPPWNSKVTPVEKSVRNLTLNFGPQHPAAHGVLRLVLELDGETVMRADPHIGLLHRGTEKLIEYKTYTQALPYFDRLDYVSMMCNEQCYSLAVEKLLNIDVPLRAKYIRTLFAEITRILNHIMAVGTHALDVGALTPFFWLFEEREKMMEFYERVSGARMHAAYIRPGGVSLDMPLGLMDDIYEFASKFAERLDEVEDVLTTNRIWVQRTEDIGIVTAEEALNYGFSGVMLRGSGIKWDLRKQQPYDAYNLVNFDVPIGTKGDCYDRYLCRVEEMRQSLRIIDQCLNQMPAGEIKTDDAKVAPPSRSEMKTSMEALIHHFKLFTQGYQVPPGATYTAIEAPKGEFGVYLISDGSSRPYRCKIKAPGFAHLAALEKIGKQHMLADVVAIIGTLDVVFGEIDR
T1 sequence (Q9VXK7 40-221, further chain): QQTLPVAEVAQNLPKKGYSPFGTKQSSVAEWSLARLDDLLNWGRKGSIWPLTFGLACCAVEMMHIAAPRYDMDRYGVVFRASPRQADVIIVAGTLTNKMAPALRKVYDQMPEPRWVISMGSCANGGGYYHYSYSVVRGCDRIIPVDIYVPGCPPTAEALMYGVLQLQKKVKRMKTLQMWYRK
T1 sequence (C7DZL9 1-315, further chain): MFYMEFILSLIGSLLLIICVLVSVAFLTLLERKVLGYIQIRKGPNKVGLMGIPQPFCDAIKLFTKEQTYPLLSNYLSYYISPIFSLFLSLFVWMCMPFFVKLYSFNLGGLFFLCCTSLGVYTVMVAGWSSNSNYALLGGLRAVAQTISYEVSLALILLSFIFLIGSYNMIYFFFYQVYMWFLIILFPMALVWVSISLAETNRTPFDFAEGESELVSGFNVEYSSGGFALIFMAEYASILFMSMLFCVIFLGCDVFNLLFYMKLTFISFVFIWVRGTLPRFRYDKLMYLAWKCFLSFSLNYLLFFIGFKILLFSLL
T1 sequence (P18930 whole entry, further chain): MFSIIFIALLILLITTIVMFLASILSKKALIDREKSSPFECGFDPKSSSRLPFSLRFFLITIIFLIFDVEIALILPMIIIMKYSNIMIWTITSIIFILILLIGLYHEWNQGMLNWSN
T1 sequence (P18933 1-173, further chain): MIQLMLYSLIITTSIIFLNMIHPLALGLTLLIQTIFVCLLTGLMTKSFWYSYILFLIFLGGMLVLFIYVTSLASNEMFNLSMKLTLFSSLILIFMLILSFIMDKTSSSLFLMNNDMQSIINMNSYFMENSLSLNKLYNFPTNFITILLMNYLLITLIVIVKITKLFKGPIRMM

COC1=C(OC)C(=O)C(C/C=C(\C)CC/C=C(\C)CC/C=C(\C)CC/C=C(\C)CC/C=C(\C)CC/C=C(\C)CC/C=C(\C)CC/C=C(\C)CCC=C(C)C)=C(C)C1=O [Q9]
cryo-EM structure (3.28 A) [1]: density for Q9 is observed within the site, although the Q9 is only partially inserted

Cc1cc2nc3c(=O)[nH]c(=O)nc-3n(C[C@H](O)[C@H](O)[C@H](O)COP(=O)(O)O)c2cc1C [FMN]
cryo-EM structure (3.28 A) [2]: The NADH-binding site at the flavin mononucleotide (FMN) cofactor

Nc1nc2c(ncn2[C@H]2C[C@H](O)[C@@H](COP(=O)(O)OP(=O)(O)OP(=O)(O)O)O2)c(=O)[nH]1 [dGTP]
cryo-EM structure (3.28 A) [3]: dGTP was modelled in subunit NDUFA10
